This is an account of results in ChEMBL document CHEMBL5725356, “Anti-fibrotic pyridinones” (2017).

A value given as a limit tells only on which side of the number the result lay.

The assay can be described thus: ET-1 Assay: Fibroblasts (primary human lung and dermal, HFL-1, 3T3 etc) are seeded in 96-well plates at ~15000 cells/well and serum starved for 0-48 hours. After media exchange, compounds serially diluted in DMSO are added to the cells. After a brief incubation of ~30 min, stimulants (TGFb, serum, LPA etc) are added followed by further incubation for 16-48 hours. Media is then harvested and stored frozen in plate format for later endothelin-1 (ET-1) determination by ELISA. Toxicity measurements are made using the ATPlite kit (Perkin-Elmer). ET-1 is quantified using an ELISA kit (R&D Systems). The amount of ET-1 produced in the assay wells are back-calculated using the ELISA standard. The ability of a compound to inhibit ET-1 production is typically analyzed by fitting dose-response curves to a 4-parameter logistic function to obtain an EC50 value. Conditions: HFL1.
Consider `O=c1ccc(C(F)(F)F)cn1-c1ccc(NCCN2CCN(CCO)CC2)cc1Cl`, for which the EC50 entry is “in the range around 125 µM”.

`CCOc1ccc(-n2cc(-c3cnn(C)c3)c(NCc3ccc(F)cc3F)cc2=O)c(C)c1`: the EC50 is less than 50 µM.

In the case of `CCOc1ccc(-n2cc(-c3cnn(C)c3)c(NCc3ccc(OCCOC)cc3)cc2=O)c(C)c1`, the EC50 is less than 50 µM.

With `CCOc1ccc(CNc2cc(=O)n(-c3ccc(OCC)cc3C)cc2-c2cnn(C)c2)c(C)c1`, the EC50 was less than 50 µM.

In the case of `CCOc1ccc(-n2cc(-c3cnn(C)c3)c(NCc3ccccn3)cc2=O)c(C)c1`, the EC50 entry is “in the range around 125 µM”.

`CC(=O)N1CCc2c(-c3cnn(C)c3)cn(-c3ccc(OC(F)(F)F)cc3)c(=O)c21`: the EC50 entry was “in the range around 125 µM”.

For `Cn1cc(-c2cn(-c3ccc(OC(F)(F)F)cc3)c(=O)c3cc[nH]c23)cn1`, the EC50 was less than 50 µM.

With `CCOc1ccc(-n2cc(-c3cnn(C)c3)c(OCCOCCOC)cc2=O)c(C)c1`, the EC50 entry was “in the range around 125 µM”.

Turning to `CCOc1ccc(-n2cc(-c3cnn(C)c3)c(OCCOC(C)C)cc2=O)c(C)c1`, the EC50 entry is “in the range around 125 µM”.

Consider `CCOc1ccc(-n2cc(-c3cnn(C)c3)c(NCc3ccc(C#N)cc3)cc2=O)c(C)c1`, for which the EC50 was less than 50 µM.

For `CCOc1ccc(-n2cc(-c3cnn(C)c3)c(NCc3ccncc3)cc2=O)c(C)c1`, the EC50 result was “in the range around 125 µM”.

For the molecule `Cn1cc(-c2cc(=O)n(-c3ccc(OC(F)(F)F)cc3)cc2-c2cnn(C)c2)cn1`, the EC50 result is “in the range around 125 µM”.

As for `CC(C)OCCn1ccc2c(-c3cn[nH]c3)cn(-c3ccc(OC(F)(F)F)cc3)c(=O)c21`, the EC50 is less than 50 µM.

`CCOCCn1ccc2c(-c3cn[nH]c3)cn(-c3ccc(OC(F)(F)F)cc3)c(=O)c21`: the EC50 is less than 50 µM.

Take `CCn1ccc2c(=O)n(-c3ccc(OC(F)(F)F)cc3)cc(-c3cnn(C)c3)c21`: the EC50 is less than 50 µM.

Regarding `CCOc1ccc(-n2cc(-c3cnn(C)c3)c(NCc3cccnc3)cc2=O)c(C)c1`, the EC50 is less than 50 µM.

Turning to `CCOc1ccc(-n2cc(-c3cnn(C)c3)c(OC3CCOCC3)cc2=O)c(C)c1`, the EC50 entry is “in the range around 125 µM”.

For `CCOc1ccc(-n2cc(-c3cnn(C)c3)c(NCc3cc(F)cc(F)c3)cc2=O)c(C)c1`, the EC50 is less than 50 µM.

Regarding `CCOc1ccc(-n2cc(-c3cnn(C)c3)c(N(C)Cc3ccccc3)cc2=O)c(C)c1`, the EC50 is less than 50 µM.

For `Cn1cc(-c2cn(-c3ccc(OC(F)(F)F)cc3)c(=O)c3ncn(C)c23)cn1` [AKEX-0011], the EC50 was less than 50 µM.

The term EC50 denotes the concentration needed to bring the measured effect to its halfway point.
